Laboratory results reported in patent publication US20240299504A1, “COMPOSITIONS AND METHODS FOR TREATING ALZHEIMERS DISEASE” (priority 2023, published 2024).

Key:
[1] = tested on: IBA1+ microglia; assay: Co-immunostaining ThioS/IBA1/LPL, microglial cells; format: in vivo, mouse; conditions: 6-MO 5×FAD female mice vs Veh
Method: (§1) Parathyroid hormone (human) was purchased from TOCRIS Bioscience (Cat #3011/1, Abingdon, United Kingdom). WT or 5×FAD mice (both male and female) were treated with PTH1-34 intermittently [once daily injection of hPTH1-34 (50 μg/Kg) or vehicle (0.9% sodium chloride) (as a control) by subcutaneous injection, starting at 2-MO, 5 days per week] as described previously. Mice were then subjected to behavioral tests and sacrificed for examinations of their bone and brain phenotypes at the indicated ages.
(§2) DAPI was used for nucleus staining.

[2] = tested on: 5×FAD mice; assay: Micro-computed tomography (μCT) of femurs, bone phenotype; format: in vivo, mouse; conditions: femur μCT, 6-MO female 5×FAD vs WT mice; hPTH1-34 50 μg/Kg s.c. once daily, 5 days per week from 2-MO
Method: as §1
Femurs of WT and 5×FAD female mouse with or without PTH1-34 treatment were detached and fixed overnight in 10% formalin and stored in PBS for further characterization by microCT (μCT). The excised femurs were placed vertically in a 12-mm-diameter scanning holder and scanned using the Scanco μCT40 (Scanco Medical AG). Settings parameters are adjusted as previously described: […], 55 kVp, and 145 μA with an integration time of 200 ms. For the cortical analysis, the bone was scanned at the midshaft of the bone for a scan of 25 slices, and the threshold for cortical bone was set at 329. The 3D reconstruction was performed using all outlined slices and analyzed by μCT evaluation program (v.6.5-2; Scanco Medical). Data were obtained on bone volume (BV), total volume (TV), BV/TV, bone density, and cortical thickness for cortical bone. […]

[3] = tested on: Aβ plaques; assay: Aβ deposition assay (Thioflavin S staining); format: in vivo, mouse; conditions: vs Veh
Method: as §1
Thioflavin S (Thio-S) staining was used for Aβ deposition assay as previously described with minimal modification. Beginning with the lateral-most section in the ROI (region of interest), every sixth tissue section of six consecutive sections was used. […] The brain slices were then washed with a series of graded EtOH in the dark as follows: 95% EtOH for 2 min, 80% EtOH for 2 min, and 70% EtOH for 2 min. Finally, the brain slices were washed with PBS 3 times in the dark and transferred to slides for sealing with an antifade fluorescence mounting medium. All the brain slices were captured on a Laser confocal microscopy. The images were adjusted to the same threshold to increase signal-to-noise ratio. Plaques >5.5 μm^2 were quantified. Four sections per mouse were quantified. The layers or sub-regions of cortex and hippocampus in each image were outlined and analyzed with the National Institutes of Health ImageJ software.

[4] = tested on: 5×FAD astrocytes; assay: Senescence markers in cultured astrocytes (RT-PCR, SA-β-gal staining); format: cell-based, mouse; conditions: cultured 5×FAD astrocytes, 100 ng/ml, 24 h
Method: Total RNA was extracted from cortex, hippocampus, or cultured astrocytes using a TRizol reagent (Invitrogen, cat #15596-026, Carlsbad, CA, USA) as previously described. Purified RNA (1-5 μg) was used for cDNA synthesis with the Revert Aid First Strand cDNA Synthesis Kit (Thermo Scientific, cat #K1621, Waltham, MA, USA). The cDNA products were subjected to subsequent quantitative PCR (qPCR) using the QuantiFast SYBR Green PCR Kit (QIA-GEN, cat #204057, Hilden, Germany) with a qPCR System (StepOne Plus). Each sample was repeated at least 3 times, and the mRNA level was normalized to GAPDH using the 2^−ΔΔCt method.
Astrocyte culture was performed according to the standard protocol with some modifications as described in previous literature. In brief, the cerebral cortex and hippocampus of postnatal day 3 (P3) female pups were dissected under a stereomicroscope and placed in ice-cold calcium- and magnesium-free HBSS (Hanks Balanced Salt Solution). The tissues were digested with 2.5% trypsin-EDTA, 3 ml for each mouse, at 37° C. for 20 min with shaking slightly every 5 min. […]
SA-β-gal staining of cultured astrocytes was performed as previously reported. […] The SA-β-gal intensity was quantified by the NIH ImageJ software.

[5] = tested on: ATG9A+ dystrophic neurites; assay: Co-immunostaining ThioS/ATG9A, plaque-associated dystrophic neurites; format: in vivo, mouse; conditions: cortex and hippocampus, ~6 MO 5×FAD female mice vs Veh
Method: as §1, §2

CC[C@H](C)[C@H](NC(=O)[C@H](CCC(=O)O)NC(=O)[C@H](CO)NC(=O)[C@@H](NC(=O)[C@@H](N)CO)C(C)C)C(=O)N[C@@H](CCC(N)=O)C(=O)N[C@@H](CC(C)C)C(=O)N[C@@H](CCSC)C(=O)N[C@@H](Cc1cnc[nH]1)C(=O)N[C@@H](CC(N)=O)C(=O)N[C@@H](CC(C)C)C(=O)NCC(=O)N[C@@H](CCCCN)C(=O)N[C@@H](Cc1cnc[nH]1)C(=O)N[C@@H](CC(C)C)C(=O)N[C@@H](CC(N)=O)C(=O)N[C@@H](CO)C(=O)N[C@@H](CCSC)C(=O)N[C@@H](CCC(=O)O)C(=O)N[C@@H](CCCN=C(N)N)C(=O)N[C@H](C(=O)N[C@@H](CCC(=O)O)C(=O)N[C@@H](Cc1c[nH]c2ccccc12)C(=O)N[C@@H](CC(C)C)C(=O)N[C@@H](CCCN=C(N)N)C(=O)N[C@@H](CCCCN)C(=O)N[C@@H](CCCCN)C(=O)N[C@@H](CC(C)C)C(=O)N[C@@H](CCC(N)=O)C(=O)N[C@@H](CC(=O)O)C(=O)N[C@H](C(=O)N[C@@H](Cc1cnc[nH]1)C(=O)N[C@@H](CC(N)=O)C(=O)N[C@@H](Cc1ccccc1)C(=O)O)C(C)C)C(C)C [PTH1-34]
Aβ associated LPL+IBA1+ microglial cells (DAM) [1]: little to no difference
IBA1+ cell density and fluorescence intensity in regions without Aβ plaques [1]: comparable
ThioS+ Aβ plaque associated IBA1 fluorescence [1]: unchanged
overall IBA1 fluorescence intensity ([1]; cortex and hippocampus): lower in PTH1-34 treated 5×FAD cortex and hippocampus than that of Veh controls
trabecular bone mass (Tb. BV/TV) [2]: more trabecular bone mass was induced in 5×FAD mice than that in WT mice
reduction in plaque density ([3]; female 5×FAD cortex): ~46%
reduction in plaque size ([3]; female 5×FAD cortex): ~34%
reduction in plaque density ([3]; female 5×FAD hippocampus): ~59%
reduction in plaque size ([3]; female 5×FAD hippocampus): ~56%
reduction in plaque density ([3]; male 5×FAD cortex): ~32%
reduction in plaque size ([3]; male 5×FAD cortex): ~28%
reduction in plaque density ([3]; male 5×FAD hippocampus): ~50%
reduction in plaque size ([3]; male 5×FAD hippocampus): ~23%
SA-β-gal+ astrocytes [4]: attenuated
p53 expression (RT-PCR) [4]: diminished
ATG9A+ dystrophic neurites [5]: smaller and less dense ATG9A+ dystrophic neurites
